Target: T1, horseradish peroxidase (HRP) (Armoracia rusticana, UniProt P00433)
T1 construct: gene PRXC1A; free enzyme for this row
T1 sequence (P00433 31-338): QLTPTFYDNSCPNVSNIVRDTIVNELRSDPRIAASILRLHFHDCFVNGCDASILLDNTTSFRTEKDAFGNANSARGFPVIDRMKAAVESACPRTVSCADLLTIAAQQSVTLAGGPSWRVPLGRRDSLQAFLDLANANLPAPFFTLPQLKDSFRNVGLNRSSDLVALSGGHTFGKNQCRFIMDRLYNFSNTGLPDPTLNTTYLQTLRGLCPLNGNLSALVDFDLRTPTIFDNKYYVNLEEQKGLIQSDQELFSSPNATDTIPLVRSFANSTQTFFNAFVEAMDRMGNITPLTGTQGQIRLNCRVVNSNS
Test: TMB oxidation, absorbance at […] nm after acid stop
Type: biochemical
Settings: free HRP; co-substrate H2O2; oxidation also seen with ZIF-8-encapsulated HRP

Cc1cc(-c2cc(C)c(N)c(C)c2)cc(C)c1N [TMB, 3,3′,5,5′-Tetramethylbenzidine]
TMB oxidation, absorbance at 450 nm after acid stop: HRP, HRP@ZIF-8, HRP&Au@ZIF-8 and HRP&Au@ZIF-8/cDNA were all able to catalyze TMB oxidation

Reference: publication PMC10526248, “Zeolitic Imidazolate Framework-8 Composite-Based Enzyme-Linked Aptamer Assay for the Sensitive Detection of Deoxynivalenol” (Biosensors, 2023)
